Measured values published in paper PMC9428149, “Tackling recalcitrant Pseudomonas aeruginosa infections in critical illness via anti-virulence monotherapy” (Nature Communications, 2022).
pIC50: −log10 of the molar value. In brackets after ≈: the same amount, converted by molar mass. Several values for one entry are separate records, joined by “and”; a condition that tells them apart may be missing. Equal values may be shown once. Read-outs that look alike come from different tables or passages of the source.

Experiments:
[1] = tested on: pqsA promoter (PA14 PpqsA-GFPASV); experiment: pqsA-GFP reporter expression; type: cell-based, Pseudomonas aeruginosa
PA14 AT/P cells = experiment: AT/P cells formation assay in PA14; type: cell-based, Pseudomonas aeruginosa; conditions: Pseudomonas aeruginosa, PA14, 24 h, read-out: inhibition of AT/P cells formation
MvfR protein (MvfRC87) = biological target: T1, MvfR protein (MvfRC87) (Pseudomonas aeruginosa, UniProt Q9I4X0); type: binding; conditions: SPR
T1 construct: The MvfRC87 protein purified as in Xiao et. al., 2006; made in house
T1 sequence (Q9I4X0 87-332): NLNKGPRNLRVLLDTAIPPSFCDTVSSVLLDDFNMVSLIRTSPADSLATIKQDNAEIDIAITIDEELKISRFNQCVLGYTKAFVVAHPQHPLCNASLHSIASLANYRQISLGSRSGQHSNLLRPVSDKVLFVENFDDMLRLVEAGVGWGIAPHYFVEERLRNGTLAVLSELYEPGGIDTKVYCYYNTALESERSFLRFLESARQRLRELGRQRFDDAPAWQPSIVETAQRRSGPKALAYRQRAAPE
Method: The selected compounds were tested for their ability to bind to MvfR. Target validation was carried out by using surface plasmon resonance (SPR). The MvfRC87 protein purified as in Xiao et. al., 2006[33] was covalently immobilized on a CM7 Series S sensor chip using an amine coupling reagent kit (GE Healthcare) at the range level of 3000 to 5000 response units (RU). RU was analyzed by Biacore T200 evaluation software 2.0 (GE Healthcare). The relative response units (RUs) 5 seconds before the end of the association were extracted from the double-reference-corrected sensor grams at different concentrations. These responses were plotted against their respective concentrations for MvfR inhibitor alone and in the presence of native MvfR ligand PQS and compared to the calculated responses for the mixture expected for different binding sites.

[2] = Solubility in iPBS pH 7.4 by HPLC; type: physicochemical; conditions: isotonic phosphate buffer (iPBS)
Method: Solubility of the 10 mM compounds dissolved in DMSO was tested in the isotonic phosphate buffer (iPBS) at pH 7.4 using High-Performance Liquid Chromatography (HPLC). For the preparation of iPBS phosphate-buffered saline tab (Sigma-Aldrich 08057-12Tab-F) is dissolved in 500 mL of deionized water and the final composition of the solution contains 10 mM PBS, 2.7 mM KCl, 140 mM NaCl and 0.05% Tween. A total 10 µL of the compound from a 10 mM stock solution in DMSO was added to the vial, and 190 µL of buffer was added to each vial and mixed with shaking at room temperature for 4 h. Thereafter the samples were filtered, and 160 µL of the sample was mixed with 40 µL of DMSO for the final injection. Ibuprofen (high solubility) and Progesterone (low Solubility) were used as standard compounds. Ammonium Acetate aqueous solution (50 mM, pH 7.4) and the acetonitrile were used as mobile phases A and B, respectively. The measurement of concentration was achieved by comparing of UV absorbance of the sample solution and the known standard solution following an HPLC separation using a generic fast gradient method. The solubility of each compound is expressed by the ratio of compound amount in the sample test solution to the amount of compound in the standard solution.

[3] = tested on: pyocyanin production in PA14; experiment: Pyocyanin production assay; conditions: Pseudomonas aeruginosa
[4] = tested on: 16 MDR P. aeruginosa clinical isolates; experiment: Pyocyanin production in MDR clinical isolates; conditions: Pseudomonas aeruginosa, 18 h, Control about 100, replicates
Method: The over-day culture was grown to OD600nm 1.5., diluted again at 1:10,000 in 5 mL LB and incubated with 10 μM of the test compound or the vehicle control for 18 hours at 37 °C and 200 rpm in an incubator shaker. After 18 h, 1 mL of culture was centrifuged for 2 min at 20.000 x g. The supernatant was transferred to a new tube, 200 μL of this were loaded in a flat-bottom 96-well plate, and the pyocyanin levels were quantified by measuring at OD690nm in the infinite F200 plate reader using the Magellan software (Tecan, Switzerland). The same procedure was also followed for the pyocyanin production assessment for all the P. aeruginosa clinical isolates assessed in this study. The percent of pyocyanin was calculated compared to the PA14 culture grown in the absence of compounds.
Pyocyanin production was measured in 16 P.
aeruginosa clinical isolates 18hr post-growth in the presence or absence of 10 µM of each NAM
compound. The percent of pyocyanin production was calculated by comparing the same strain grown
in the presence of the vehicle control. b.

ΔmvfR biofilm = experiment: Biofilm formation of ΔmvfR mutant (off-target); conditions: Pseudomonas aeruginosa, PA14, 24 h, read-out: Biofilm formation, ΔmvfR + compound; PA14 about 100; single replicates (Figure 4c)
[5] = tested on: PA14 isogenic mutant ΔmvfR AT/P cells; experiment: AT/P cell formation in ΔmvfR mutant (off-target); conditions: Pseudomonas aeruginosa, PA14, 24 h, read-out: AT/P cell formation, ΔmvfR + compound; PA14 about 100; single replicates (Figure 4b)
Method: Cells were grown in the presence of 10 μg mL^−1 meropenem, with or without 10 µM of the compounds for 24 h. Values were normalized to cells grown for 4 h in the absence of antibiotics and compounds. The ∆mvfR cells grown with antibiotics and vehicles were considered control, and the percentage values were calculated compared to control. c Biofilm formation of mutant ∆mvfR cells with or without compound. […] The number of biological replicates for each compound and strain is depicted in the graph. The error bars denote ±SEM.
The AT/P cell formation assay was performed according to the method previously described in Starkey et al., 2014 (persister cell assay). The over-day culture was incubated at 37 °C with shaking at 200 rpm until the culture OD600nm was 3.0. The culture was then diluted at 1:100 and grown in the same conditions for 4 h. After 4 h, 200 µL were collected, and serial dilutions were plated on LB agar plates for CFU quantification (as normalizers). The remainder of the culture was treated with meropenem to a final concentration of 100 × MIC (Minimum Inhibitory Concentration; 10 mg L^−1) and compounds at a final concentration of 10 µM. After 24 h, culture aliquots were 10-fold serially diluted in LB broth and plated on LB agar for CFU quantification. The AT/P fraction was determined as the normalizers (pre-antibiotic) ratio divided by the AT/P fraction (24 h post-antibiotic)[22].

[6] = tested on: MvfR-regulated small molecules in PA14; experiment: Production of HAQs, 2-AA, DHQ and AA in PA14 cultures (LC-MS); conditions: Figure 5a, replicates

N#Cc1ccc(NC(=O)C(F)C(=O)Nc2ccc(Oc3ccccc3)cc2)cc1 (centres unmarked) [D88]
activity at 50 µM ([1]; Pseudomonas aeruginosa, PA14, read-out: % Production pqsA-GFP): 2%
pIC50 ([1]; Pseudomonas aeruginosa, PA14, read-out: IC50 pqsA-GFP expression, PA14, 13 concentrations): 5.87
pIC50 ([1]; read-out: IC50 pqsA-GFP expression, PA14, 13 concentrations): 5.88
inhibition at 10 µM (PA14 AT/P cells): ≥ 76%
Response Unit (RU) (MvfR protein (MvfRC87); Concentration 1.00E-05 M): 36.6 RU
Response Unit (RU) (MvfR protein (MvfRC87); Concentration 1.00E-06 M): 18.2 RU
Response Unit (RU) (MvfR protein (MvfRC87); Concentration 1.00E-07 M): 5.5 RU
Response Unit (RU) (MvfR protein (MvfRC87); Concentration 1.00E-08 M): 0.4 RU
Response Unit (RU) (MvfR protein (MvfRC87); Concentration 3.16E-06 M): 28.1 RU
Response Unit (RU) (MvfR protein (MvfRC87); Concentration 3.16E-07 M): 10.5 RU
Response Unit (RU) (MvfR protein (MvfRC87); Concentration 3.16E-08 M): 2.3 RU
solubility at 4 h ([2]; aqueous with cosolvent or surfactant or cyclodextrin, kinetic from dmso stock, iPBS pH 7.4, HPLC, read-out: Solubility (M) in PBS): 0.00049 M (≈ 191 µg/mL)
solubility at 4 h ([2]; pH 7.4, HPLC, read-out: solubility): 0.00049 M (≈ 191 µg/mL)
activity at 50 µM ([3]; PA14, 18 h, read-out: % Production Pyocyanin): 6%
pIC50 ([3]; PA14, read-out: IC50 pyocyanin production): 6.28
activity at 10 µM ([4]; read-out: Pyocyanin production relative to Control, clinical isolate LGR-4325): 17.1%
activity at 10 µM ([4]; read-out: Pyocyanin production relative to Control, clinical isolate LGR-4326): 8.91%
activity at 10 µM ([4]; read-out: Pyocyanin production relative to Control, clinical isolate LGR-4327): 8.23%
activity at 10 µM ([4]; read-out: Pyocyanin production relative to Control, clinical isolate LGR-4328): 27.7%
activity at 10 µM ([4]; read-out: Pyocyanin production relative to Control, clinical isolate LGR-4330): 33.3%
activity at 10 µM ([4]; read-out: Pyocyanin production relative to Control, clinical isolate LGR-4331 (first section, r117)): 12.7%
activity at 10 µM ([4]; read-out: Pyocyanin production relative to Control, clinical isolate LGR-4331 (second section, r140)): 5.55%
activity at 10 µM ([4]; read-out: Pyocyanin production relative to Control, clinical isolate LGR-4333): 10.5%
activity at 10 µM ([4]; read-out: Pyocyanin production relative to Control, clinical isolate LGR-4343): 12.2%
activity at 10 µM ([4]; read-out: Pyocyanin production relative to Control, clinical isolate LGR-4344): 12.7%
activity at 10 µM ([4]; read-out: Pyocyanin production relative to Control, clinical isolate LGR-4348): 8.7%
activity at 10 µM ([4]; read-out: Pyocyanin production relative to Control, clinical isolate LGR-4356): 10.8%
activity at 10 µM ([4]; read-out: Pyocyanin production relative to Control, clinical isolate LGR-4362): 13.9%
activity at 10 µM ([4]; read-out: Pyocyanin production relative to Control, clinical isolate LGR-4363): 17.7%
activity at 10 µM ([4]; read-out: Pyocyanin production relative to Control, clinical isolate LGR-4364 (first section, r326)): 17.2%
activity at 10 µM ([4]; read-out: Pyocyanin production relative to Control, clinical isolate LGR-4364 (second section, r349)): 19.4%
activity at 10 µM (ΔmvfR biofilm): 43.6%
activity at 10 µM [5]: 34.2%
2-AA ([6]; Compound 4.88e-8 M): 20.87 and 7.96 and 12.86
DHQ ([6]; Compound 4.88e-8 M): 15.28 and 24.13 and 25.25
HHQ ([6]; Compound 4.88e-8 M): -10.38 and -9.83 and -4.34
HQNO ([6]; Compound 4.88e-8 M): 23.03 and 20.64 and 19.09
2-AA ([6]; Compound 9.77e-8 M): 21.63 and 8.61 and -0.13
DHQ ([6]; Compound 9.77e-8 M): 23.53 and 26.23 and 29.13
HHQ ([6]; Compound 9.77e-8 M): 0.19 and 2.23 and -9.33
HQNO ([6]; Compound 9.77e-8 M): 18.24 and 19.63 and 16.60
PQS ([6]; Compound 9.77e-8 M): 1.00 and -2.02 and -4.38
2-AA ([6]; Compound 1.95e-7 M): 4.17 and 23.60 and 8.88
DHQ ([6]; Compound 1.95e-7 M): 24.27 and 28.60 and 33.04
HHQ ([6]; Compound 1.95e-7 M): -0.13 and 9.98 and 9.62
HQNO ([6]; Compound 1.95e-7 M): 22.51 and 25.08 and 21.13
2-AA ([6]; Compound 3.91e-7 M): 26.65 and 26.00 and 18.02
DHQ ([6]; Compound 3.91e-7 M): 19.73 and 32.57 and 33.17
HHQ ([6]; Compound 3.91e-7 M): 5.11 and 8.17 and 11.07
HQNO ([6]; Compound 3.91e-7 M): 30.53 and 30.32 and 29.72
PQS ([6]; Compound 3.91e-7 M): -1.07 and -0.58 and 0.13
2-AA ([6]; Compound 7.81e-7 M): 26.65 and 26.00 and 18.02
DHQ ([6]; Compound 7.81e-7 M): 19.73 and 32.57 and 33.17
HHQ ([6]; Compound 7.81e-7 M): 5.11 and 8.17 and 11.07
HQNO ([6]; Compound 7.81e-7 M): 30.53 and 30.32 and 29.72
PQS ([6]; Compound 7.81e-7 M): -1.07 and -0.58 and 0.13
